Source: patent US12390437B2, “Itaconic acid derivatives and uses thereof intreating an inflammatory disease or a disease associated with an undesirable immune response” (Sitryx Therapeutics Limited, priority 2019, dated 2025)

Test system: NRF2
Assay: NRF2 +/-GSH activation assay (DiscoverX PathHunter NRF2 translocation kit, U2OS cells)
Format: cell-based
Conditions: Homo sapiens, U2OS; normalised to dimethyl fumarate 'High' control; GSH condition not stated in Table 5; read-out: NRF2 activation Emax
Method in brief: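 PathHunter U2OS cells, plated 24 hrs, measured NRF2 nuclear translocation by enzyme-fragment complementation luminescence after 6 hours compound exposure at 37 °C. For +GSH, compound was pre-incubated 30 minutes with GSH (6 mM working stock). EC50 from % activation normalised to dimethyl fumarate high control.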

| SMILES | Emax |
| --- | --- |
| C=C(CC(=O)OCCCCCCCC)C(=O)OC1COC1 [Example 4, 4-octyl 1-(oxetan-3-yl) 2-methylenesuccinate] | 181% |
| C=C(CC(=O)O[C@@H](C)CCCCCC)C(=O)OCCc1nnn[nH]1 [Example 129, (S)-1-(2-(1H-tetrazol-5-yl)ethyl) 4-octan-2-yl 2-methylenesuccinate] | 178% |
| C=C(CC(=O)OC1CCCCC1)C(=O)OCc1nnn[nH]1 [Example 125, 1-((2H-tetrazol-5-yl)methyl) 4-cyclohexyl 2-methylenesuccinate] | 116% |
| C=C(CC(=O)OCCCCCCCC)C(=O)OCCS(C)(=O)=O [Example 2, 1-(2-(methylsulfonyl)ethyl) 4-octyl 2-methylenesuccinate] | 268% |
| C=C(CC(=O)OCCCCCCCC)C(=O)OCCC#N [Example 1, 1-(2-cyanoethyl) 4-octyl 2-methylenesuccinate] | 134% |
| C=C(CC(=O)OC1CCCCCCC1)C(=O)OC(C)c1nnn[nH]1 (stereo not shown) [Example 133, 1-(1-(1H-tetrazol-5-yl)ethyl) 4-cyclooctyl 2-methylenesuccinate] | 227% |
| C=C(CC(=O)O[C@@H](CCCCCC)C(F)(F)F)C(=O)OCC(=O)O [Example 182, (S)-2-((2-methylene-4-oxo-4-((1,1,1-trifluorooctan-2-yl)oxy)butanoyl)oxy)acetic acid] | 188% |
| C=C(CC(=O)OCCCOc1ccccc1)C(=O)OCCC(=O)O [Example 86, 3-((2-methylene-4-oxo-4-(3-phenoxypropoxy)butanoyl)oxy)propanoic acid] | 91% |

Same assay, conditions: Homo sapiens; U2OS PathHunter cells, 6 hours; GSH condition not stated in Table 5; read-out: NRF2 activation EC50

| SMILES | EC50 |
| --- | --- |
| C=C(CC(=O)OCCCCCCCC)C(=O)OC1COC1 [Example 4, 4-octyl 1-(oxetan-3-yl) 2-methylenesuccinate] | 8.3 µM |
| C=C(CC(=O)O[C@@H](C)CCCCCC)C(=O)OCCc1nnn[nH]1 [Example 129, (S)-1-(2-(1H-tetrazol-5-yl)ethyl) 4-octan-2-yl 2-methylenesuccinate] | 5.8 µM |
| C=C(CC(=O)OC1CCCCC1)C(=O)OCc1nnn[nH]1 [Example 125, 1-((2H-tetrazol-5-yl)methyl) 4-cyclohexyl 2-methylenesuccinate] | 38.3 µM |
| C=C(CC(=O)OCCCCCCCC)C(=O)OCCS(C)(=O)=O [Example 2, 1-(2-(methylsulfonyl)ethyl) 4-octyl 2-methylenesuccinate] | 5.1 µM |
| C=C(CC(=O)OCCCCCCCC)C(=O)OCCC#N [Example 1, 1-(2-cyanoethyl) 4-octyl 2-methylenesuccinate] | 8.8 µM |
| C=C(CC(=O)OC1CCCCCCC1)C(=O)OC(C)c1nnn[nH]1 (stereo not shown) [Example 133, 1-(1-(1H-tetrazol-5-yl)ethyl) 4-cyclooctyl 2-methylenesuccinate] | 33.3 µM |
| C=C(CC(=O)O[C@@H](CCCCCC)C(F)(F)F)C(=O)OCC(=O)O [Example 182, (S)-2-((2-methylene-4-oxo-4-((1,1,1-trifluorooctan-2-yl)oxy)butanoyl)oxy)acetic acid] | 5.5 µM |
| C=C(CC(=O)OCCCOc1ccccc1)C(=O)OCCC(=O)O [Example 86, 3-((2-methylene-4-oxo-4-(3-phenoxypropoxy)butanoyl)oxy)propanoic acid] | 21 µM |

Test system: not listed separately
Assay: Hepatocyte stability assay (human)
Format: in vitro ADME
Conditions: cryopreserved hepatocytes, 10 μM compound, 0.5×10^6 cells/mL, 60 minutes, read-out: T½
Text: (§1) Defrosted cryo-preserved hepatocytes (viability >70%) are used to determine the metabolic stability of a compound via calculation of intrinsic clearance (Clint; a measure of the removal of a compound from the liver in the absence of blood flow and cell binding). Clearance data are particularly important for in vitro work as they can be used in combination with in vivo data to predict the half-life and oral bioavailability of a drug.
(§2) The metabolic stability in hepatocytes assay involves a time-dependent reaction using both positive and negative controls. The cells must be pre-incubated at 37° C. then spiked with test compound (and positive control); samples taken at pre-determined time intervals are analysed to monitor the change in concentration of the initial drug compound over 60 minutes. A buffer incubation reaction (with no hepatocytes present) acts as a negative control and two cocktail solutions, containing compounds with known high and low clearance values (verapamil/7-hydroxycoumarin and propranolol/diltiazem), act as positive controls. • 1. The assay is run with a cell concentration of 0.5×10^6 cells/mL in Leibovitz buffer. • 2. All compounds and controls are run in duplicate. • 3. Compound concentration is 10 μM. • 4. All compounds and controls are incubated with both cells and buffer to show turnover is due to hepatic metabolism. • 5. All wells on the incubation plate will have 326.7 μL of either cells or buffer added. • 6. Prior to assay, cell and buffer-only incubation plates are preincubated for 10 mins at 37° C. • 7. The assay is initiated by adding compounds, 3.3 μL of 1 mM in 10% DMSO-90% Buffer; final DMSO concentration is 0.1%. • 8. Samples are taken at regular timepoints (0, 5, 10, 20, 40, 60 min) until 60 mins. • 9. Sample volume is 40 μL and it is added to 160 μL of crash solvent (acetonitrile with internal standard) and stored on ice. • 10. At the end of the assay, the crash plates are centrifuged at 3500 rpm for 20 mins at 4° C. • 11. 80 μL of clear supernatant is removed and mixed with 80 μL of deionised water before being analysed by LC-MS/MS.
(§3) Raw LC-MS/MS data are exported to, and analysed in, Microsoft Excel for determination of intrinsic clearance. The percentage remaining of a compound is monitored using the peak area of the initial concentration as 100%. Intrinsic clearance and half-life values are calculated using a graph of the natural log of percentage remaining versus the time of reaction in minutes. Half-life (min) and intrinsic clearance (Clint in μL min^−1 10^−6 cells) values are calculated using the gradient of the graph (the elimination rate constant, k) and Equations 1 and 2.

| SMILES | half-life at 10 μM |
| --- | --- |
| C=C(CC(=O)O[C@@H](CC)CCCCC)C(=O)OCC(=O)O [Example 170, (S)-2-(2-methylene-4-(octan-3-yloxy)-4-oxobutanoyloxy)acetic acid] | 120 min |
| C=C(CC(=O)OC(C)(C)CCCCC)C(=O)OCC(=O)O [Example 193, 2-((2-methylene-4-((2-methylheptan-2-yl)oxy)-4-oxobutanoyl)oxy)acetic acid] | 109 min |
| C=C(CC(=O)OC1C(C)(C)CC1(C)C)C(=O)OCC(=O)O [Example 169, 2-((2-methylene-4-oxo-4-(2,2,4,4-tetramethylcyclobutoxy)butanoyl)oxy) acetic acid] | 268 min |
| C=C(CC(=O)O[C@@H](C)CCCCCC)C(=O)OCCc1nnn[nH]1 [Example 129, (S)-1-(2-(1H-tetrazol-5-yl)ethyl) 4-octan-2-yl 2-methylenesuccinate] | 108 min |
| C=C(CC(=O)OC1CCCCC1)C(=O)OCc1nnn[nH]1 [Example 125, 1-((2H-tetrazol-5-yl)methyl) 4-cyclohexyl 2-methylenesuccinate] | 198 min |
| C=C(CC(=O)OC1CCCCCCC1)C(=O)OC(C)c1nnn[nH]1 (stereo not shown) [Example 133, 1-(1-(1H-tetrazol-5-yl)ethyl) 4-cyclooctyl 2-methylenesuccinate] | 30 min |
| C=C(CC(=O)O[C@@H](CCCCCC)C(F)(F)F)C(=O)OCC(=O)O [Example 182, (S)-2-((2-methylene-4-oxo-4-((1,1,1-trifluorooctan-2-yl)oxy)butanoyl)oxy)acetic acid] | 28 min |
| C=C(CC(=O)OCCCOc1ccccc1)C(=O)OCCC(=O)O [Example 86, 3-((2-methylene-4-oxo-4-(3-phenoxypropoxy)butanoyl)oxy)propanoic acid] | 31 min |

Test system: hepatocytes
Assay: Hepatocyte stability assay (human)
Format: in vitro ADME
Conditions: 10 μM compound, 0.5×10^6 cells/mL, 60 minutes
Text: as §1, §2, §3

| SMILES | CIint (μL min^−1 10^−6 cells) |
| --- | --- |
| C=C(CC(=O)O[C@@H](CC)CCCCC)C(=O)OCC(=O)O [Example 170, (S)-2-(2-methylene-4-(octan-3-yloxy)-4-oxobutanoyloxy)acetic acid] | 12 μL min^−1 10^−6 cells |
| C=C(CC(=O)OC(C)(C)CCCCC)C(=O)OCC(=O)O [Example 193, 2-((2-methylene-4-((2-methylheptan-2-yl)oxy)-4-oxobutanoyl)oxy)acetic acid] | 16 μL min^−1 10^−6 cells |
| C=C(CC(=O)OC1C(C)(C)CC1(C)C)C(=O)OCC(=O)O [Example 169, 2-((2-methylene-4-oxo-4-(2,2,4,4-tetramethylcyclobutoxy)butanoyl)oxy) acetic acid] | 5 μL min^−1 10^−6 cells |
| C=C(CC(=O)O[C@@H](C)CCCCCC)C(=O)OCCc1nnn[nH]1 [Example 129, (S)-1-(2-(1H-tetrazol-5-yl)ethyl) 4-octan-2-yl 2-methylenesuccinate] | 55 μL min^−1 10^−6 cells |
| C=C(CC(=O)OC1CCCCC1)C(=O)OCc1nnn[nH]1 [Example 125, 1-((2H-tetrazol-5-yl)methyl) 4-cyclohexyl 2-methylenesuccinate] | 9 μL min^−1 10^−6 cells |
| C=C(CC(=O)OC1CCCCCCC1)C(=O)OC(C)c1nnn[nH]1 (stereo not shown) [Example 133, 1-(1-(1H-tetrazol-5-yl)ethyl) 4-cyclooctyl 2-methylenesuccinate] | 48 μL min^−1 10^−6 cells |
| C=C(CC(=O)O[C@@H](CCCCCC)C(F)(F)F)C(=O)OCC(=O)O [Example 182, (S)-2-((2-methylene-4-oxo-4-((1,1,1-trifluorooctan-2-yl)oxy)butanoyl)oxy)acetic acid] | 60 μL min^−1 10^−6 cells |
| C=C(CC(=O)OCCCOc1ccccc1)C(=O)OCCC(=O)O [Example 86, 3-((2-methylene-4-oxo-4-(3-phenoxypropoxy)butanoyl)oxy)propanoic acid] | 44 μL min^−1 10^−6 cells |

Test system: not listed separately
Assay: Hepatocyte stability assay (mouse)
Format: in vitro ADME
Conditions: cryopreserved hepatocytes, 10 μM compound, 0.5×10^6 cells/mL, 60 minutes, read-out: T½
Text: as §1, §2, §3

| SMILES | half-life at 10 μM |
| --- | --- |
| C=C(CC(=O)O[C@@H](CC)CCCCC)C(=O)OCC(=O)O [Example 170, (S)-2-(2-methylene-4-(octan-3-yloxy)-4-oxobutanoyloxy)acetic acid] | 20 min |
| C=C(CC(=O)OC(C)(C)CCCCC)C(=O)OCC(=O)O [Example 193, 2-((2-methylene-4-((2-methylheptan-2-yl)oxy)-4-oxobutanoyl)oxy)acetic acid] | 22 min |
| C=C(CC(=O)OC1C(C)(C)CC1(C)C)C(=O)OCC(=O)O [Example 169, 2-((2-methylene-4-oxo-4-(2,2,4,4-tetramethylcyclobutoxy)butanoyl)oxy) acetic acid] | 34 min |
| C=C(CC(=O)O[C@@H](C)CCCCCC)C(=O)OCCc1nnn[nH]1 [Example 129, (S)-1-(2-(1H-tetrazol-5-yl)ethyl) 4-octan-2-yl 2-methylenesuccinate] | 4 min |
| C=C(CC(=O)OC1CCCCC1)C(=O)OCc1nnn[nH]1 [Example 125, 1-((2H-tetrazol-5-yl)methyl) 4-cyclohexyl 2-methylenesuccinate] | 16 min |
| C=C(CC(=O)OC1CCCCCCC1)C(=O)OC(C)c1nnn[nH]1 (stereo not shown) [Example 133, 1-(1-(1H-tetrazol-5-yl)ethyl) 4-cyclooctyl 2-methylenesuccinate] | 14 min |
| C=C(CC(=O)O[C@@H](CCCCCC)C(F)(F)F)C(=O)OCC(=O)O [Example 182, (S)-2-((2-methylene-4-oxo-4-((1,1,1-trifluorooctan-2-yl)oxy)butanoyl)oxy)acetic acid] | 9 min |

Test system: hepatocytes
Assay: Hepatocyte stability assay (mouse)
Format: in vitro ADME
Conditions: 10 μM compound, 0.5×10^6 cells/mL, 60 minutes
Text: as §1, §2, §3

| SMILES | CIint (μL min^−1 10^−6 cells) |
| --- | --- |
| C=C(CC(=O)O[C@@H](CC)CCCCC)C(=O)OCC(=O)O [Example 170, (S)-2-(2-methylene-4-(octan-3-yloxy)-4-oxobutanoyloxy)acetic acid] | 64 μL min^−1 10^−6 cells |
| C=C(CC(=O)OC(C)(C)CCCCC)C(=O)OCC(=O)O [Example 193, 2-((2-methylene-4-((2-methylheptan-2-yl)oxy)-4-oxobutanoyl)oxy)acetic acid] | 79 μL min^−1 10^−6 cells |
| C=C(CC(=O)OC1C(C)(C)CC1(C)C)C(=O)OCC(=O)O [Example 169, 2-((2-methylene-4-oxo-4-(2,2,4,4-tetramethylcyclobutoxy)butanoyl)oxy) acetic acid] | 38 μL min^−1 10^−6 cells |
| C=C(CC(=O)O[C@@H](C)CCCCCC)C(=O)OCCc1nnn[nH]1 [Example 129, (S)-1-(2-(1H-tetrazol-5-yl)ethyl) 4-octan-2-yl 2-methylenesuccinate] | 378 μL min^−1 10^−6 cells |
| C=C(CC(=O)OC1CCCCC1)C(=O)OCc1nnn[nH]1 [Example 125, 1-((2H-tetrazol-5-yl)methyl) 4-cyclohexyl 2-methylenesuccinate] | 101 μL min^−1 10^−6 cells |
| C=C(CC(=O)OC1CCCCCCC1)C(=O)OC(C)c1nnn[nH]1 (stereo not shown) [Example 133, 1-(1-(1H-tetrazol-5-yl)ethyl) 4-cyclooctyl 2-methylenesuccinate] | 107 μL min^−1 10^−6 cells |
| C=C(CC(=O)O[C@@H](CCCCCC)C(F)(F)F)C(=O)OCC(=O)O [Example 182, (S)-2-((2-methylene-4-oxo-4-((1,1,1-trifluorooctan-2-yl)oxy)butanoyl)oxy)acetic acid] | 187 μL min^−1 10^−6 cells |
